Assay results: patent US20250179194A1, “COMPOSITIONS AND METHODS FOR IMMUNOTHERAPY TARGETING FLT3, PD-1, AND/OR PD-L1” (Cytoimmune Therapeutics, Inc., priority 2018, published 2025)

Key:
[1] = test system: surface FLT3 expression in MOLM-13, U937, THP-1, MV4-11, and EOL-1 AML cell lines; experiment: Surface FLT3 expression in AML cell lines after FLT3 inhibitor treatment; format: cell-based, human; details: 10 μM, 48 hours
[2] = test system: FLT3 surface density expression on AML blasts; experiment: Surface FLT3 expression by flow cytometry on AML patient blasts; format: cell-based, human; details: 48 hours, peripheral blood samples
Method: FIG. 11 depicts the quantification of FLT3 surface density expression by flow cytometry on AML blasts before and after being treated with Midostaurin for 48 hours.
Further experiments were conducted to determine whether FLT3 expression was increased upon administration of an FLT3 inhibitor. […] FIG. 11 depicts the detection of surface FLT3 expression by flow cytometry in peripheral blood samples of patients who were treated with Midostaurin for 48 hours.

Compound | FLT3 surface expression in AML cell lines [1] | FLT3 surface expression on AML patient blasts [2]
CCCNc1nc(Nc2ccc(C#N)cc2)ncc1C#CCCCNC(=O)[C@H](C)N(C)C(=O)/C=C/CN(C)C [FF-10101] | upregulated | –
CO[C@@H]1[C@H](N(C)C(=O)c2ccccc2)C[C@H]2O[C@]1(C)n1c3ccccc3c3c4c(c5c6ccccc6n2c5c31)C(=O)NC4 [Midostaurin] | upregulated | upregulated
Dovitinib [Dovitinib (TKI-258)] | upregulated | –
